This is an account of results in PMC12064818, “A general assay platform to study protein pharmacology using ligand-dependent structural dynamics” (Nature Communications, 2025).

Read-outs that look alike come from different tables or passages of the source.

In one assay the test system is PKA. The conditions noted are these: annotation yes/no for kinase library compound; source not given; cited from earlier work.
The target of assay [1] is T1, ABL1-N-HiBiT kinase domain (Homo sapiens, UniProt P00519).
T1 sequence (P00519 233-500): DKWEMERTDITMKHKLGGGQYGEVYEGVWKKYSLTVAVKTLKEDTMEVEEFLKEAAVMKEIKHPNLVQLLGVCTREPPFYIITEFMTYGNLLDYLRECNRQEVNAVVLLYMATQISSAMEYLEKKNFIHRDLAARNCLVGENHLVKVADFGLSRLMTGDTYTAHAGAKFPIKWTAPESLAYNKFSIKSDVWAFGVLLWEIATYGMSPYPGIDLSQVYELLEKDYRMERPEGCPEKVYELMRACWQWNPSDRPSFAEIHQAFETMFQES
Description: SDR assay, ABL1-N-HiBiT. The conditions noted are these: for EC50: read-out: SDR Ave SDR50. (In general: The HiBiT peptide binds its large partner to form an active luciferase.)

Assay [2] deals with T1, ABL1-N-HiBiT kinase domain. In words: ABL1 peptide phosphorylation, Kinase-Glo Plus (KGP) assay, ABL1-N-HiBiT. Further details: containing amino acid residues Asp233-Ser500; His10 (N); made in house; host or cells: E. coli BL21(DE3). Format: biochemical. The conditions noted are these: for IC50: read-out: ABL1 KGP Ave IC50. On the procedure:
Kinase activity was measured by ATP depletion using the Kinase-Glo Plus (KGP) assay kit (Promega) in 1536-well plate format. […] Controls were added with a Mosquito dispenser (STP LabTech) while compounds were transferred with a pintool to each plate as described in Supplementary Data 8 and incubated for 30 min at ambient temperature. […] Following a 10 min incubation, KGP luminescence was measured with a ViewLux plate reader with 1 sec exposure, with medium to high gain setting, slow speed and 2x binning. Data were normalized to the average of no enzyme control column as 100% kinase inhibition and DMSO control column as 100% phosphorylation reaction progress. See Supplementary Table 5 for additional details.
Protocol for Abelson kinase (ABL1) and protein kinase A (PKA) peptide phosphorylation assays
Supplementary Table 5: Protocol for Abelson kinase (ABL1) and protein kinase A (PKA) peptide phosphorylation assays Sequence Param eter Value Description
3 Incubation 30 m in Incubate enzym e + com pounds at am bient tem p for 30 m in, protected from light […]
protocol; dispensed with BioRaptr 2
A general note: In Kinase-Glo more light means more ATP remaining.

Another assay has as its target PKA-N-HiBiT (Homo sapiens, UniProt P17612). Description: SDR assay, PKA-N-HiBiT. The conditions noted are these: for SDR Ave Max Response: average maximal response.
Assay [3] deals with T2, FLuc-C-NLuc (firefly luciferase) (Photinus pyralis, UniProt P08659, form not given/L550V). In words: Firefly luciferase (FLuc) enzymatic luminescence assay, FLuc-C-NLuc. Format: biochemical. Further details: key to Enz: % normalized; no enzyme control = 100% inhibition, DMSO = 0. The conditions noted are these: Log[Compound]. On the procedure:
The enzyme activity of FLuc-N-HiBiT, FLuc-C-HiBiT, and FLuc-C-NLuc was measured similar to P. pyralis firefly luciferase (FLuc) as previously described. […] Compounds and controls were added to each plate as described in Supplementary Data 8 with a Hornet pintool system (Wako Automation). Compounds were incubated with respective enzymes for 30–60 min at room temperature protected from light and covered by solid metal lid to prevent evaporation. […] Luciferin was incubated with FLuc enzyme for 5 min before FLuc activity was then measured on a ViewLux CCD imager (PerkinElmer), with exposure times up to ten seconds with medium to high gain settings. Data were normalized to average no enzyme control as 100% enzyme inhibition and average DMSO neutral control. See Supplementary Table 4 for additional details.
Supplementary Table 4. Protocol for Firefly luciferase (FLuc) and NanoLuc (NLuc) enzymatic
Supplementary Table 4: Protocol for Firefly luciferase (FLuc) and NanoLuc (NLuc) enzym atic lum inescence assay
Firefly luciferase (FLuc) enzym atic lum inescence assay
Sequence Param eter Value Description
No enzym e control (colum n 1) and enzym e solution (1- 10 nM FLuc enzym e) in FLuc assay
1 Reagent 4 µLbuffer; white/solid bottom , m edium bind, high base plates (Greiner), dispensed with BioRaptr
com pounds transferred to respective colum ns with Pintool
2b Test Com pounds 23 nLconcentration range) in colum ns 5- 48; com pounds transferred to respective wells with
3 Incubation 30 m in Incubate enzym e + com pounds at am bient tem p for 30 m in, protected from light
4 Reagent 3 µLAdd 3 µL of D-luciferin substrate solution to each well (final concentration 10 µM); dispensed
5 Detector ViewLux Read plate lum inescence (Exposure = 1- 10 sec; Gain = Medium -high; Speed = Slow;
Dispensing solution was diluted in 1X PBS, pH 7.4. […]

The target in assay [4] is T2, FLuc-C-NLuc (firefly luciferase). In words: SDR assay, FLuc-C-NLuc. Conditions: Log[Compound]; for SDR+ATP: 10 mM ATP; for SDR: absence of ATP.
Setting [5] is: ABL1, SDR, heatmap data, 128 kinase inhibitors.
The mark [6] stands for this setting: ABL1-N-HiBiT qHTS, average maximal SDR response.
[7] abbreviates: ABL1-N-HiBiT qHTS, average, unit inferred.
The mark [8] stands for this setting: ABL1, Kinase-Glo Plus (KGP), heatmap data, 128 kinase inhibitors.
Setting [9] is: read-out: PKA SDR Ave SDR50, PKA-N-HiBiT qHTS, SDR assay, average.

T2 sequence (P08659 2-550 L550V, form open): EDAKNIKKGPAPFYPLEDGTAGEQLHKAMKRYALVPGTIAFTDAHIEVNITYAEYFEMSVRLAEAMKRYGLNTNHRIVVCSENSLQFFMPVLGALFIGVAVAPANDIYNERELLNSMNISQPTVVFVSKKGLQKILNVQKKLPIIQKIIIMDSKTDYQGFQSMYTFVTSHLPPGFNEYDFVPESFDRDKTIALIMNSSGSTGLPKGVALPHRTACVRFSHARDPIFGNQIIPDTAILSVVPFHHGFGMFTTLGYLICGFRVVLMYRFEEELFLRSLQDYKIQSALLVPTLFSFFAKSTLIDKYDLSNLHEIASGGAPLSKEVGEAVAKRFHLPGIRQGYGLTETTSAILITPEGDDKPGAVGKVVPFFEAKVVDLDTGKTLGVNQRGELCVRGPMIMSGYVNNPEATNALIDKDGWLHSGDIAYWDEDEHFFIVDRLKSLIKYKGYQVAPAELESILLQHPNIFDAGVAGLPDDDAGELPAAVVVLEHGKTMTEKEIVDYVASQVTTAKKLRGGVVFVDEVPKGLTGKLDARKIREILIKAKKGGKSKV

With `COc1cc2ncnc(Oc3cccc(NC(=O)Nc4cc(C(C)(C)C(F)(F)F)on4)c3)c2cc1OC` [CEP-32496], the “Annotated PKA activity” value in the assay on PKA is recorded as “no”. Besides, the “ABL1 SDR pSDR50” value in assay [1] (setting [5]) is given as 6.76. For the same molecule, the “SDR Ave Max Response” value in assay [1] (setting [6]) came to 83.27; at PKA-N-HiBiT (PKA-N-HiBiT qHTS, SDR assay), 2.14. For the same molecule, the EC50 in assay [1] (setting [7]) came out at 175 nM. Besides, in assay [2] (setting [8]), the “ABL1 KGP pIC50” value worked out at 5.59. Moreover, the IC50 in assay [2] (setting [7]) amounted to 2.56 µM.

On to `CC[C@@](C)(Nc1ccnc(-c2c[nH]c3ncccc23)n1)C(=O)NCC(F)(F)F` [Decernotinib], for which, in the assay with PKA, the “Annotated PKA activity” value was “no”. Moreover, in assay [1] (setting [5]), the “ABL1 SDR pSDR50” value is reported as 5.64. The “SDR Ave Max Response” value in assay [1] (setting [6]) is 85.00; on PKA-N-HiBiT (PKA-N-HiBiT qHTS, SDR assay), 33.61. The figures for the EC50 (in assay [1] (setting [7]); on PKA-N-HiBiT; on PKA-N-HiBiT (setting [9])) were 2370 nM, 15.8 µM and 18.8 µM, respectively. Also, the “ABL1 KGP pIC50” value in assay [2] (setting [8]) is recorded as 5.13. For the same molecule, in assay [2] (setting [7]), the IC50 came out at 7.45 µM.

As for `O=C(O)[C@]1(Cc2cccc(Nc3nccs3)n2)CC[C@@H](Oc2cccc(Cl)c2F)CC1` [MK-5108 (VX-689)], the “Annotated PKA activity” value in the assay on PKA is on record as “no”. Also, the “ABL1 SDR pSDR50” value in assay [1] (setting [5]) is on record as 6.90. Further, the “SDR Ave Max Response” value is reported as 98.02 in assay [1] (setting [6]) and 30.82 at PKA-N-HiBiT (PKA-N-HiBiT qHTS, SDR assay). The values for the EC50 (in assay [1] (setting [7]); at PKA-N-HiBiT (setting [9])) were 126 nM and 28 µM, respectively. For the same molecule, in assay [2] (setting [8]), the “ABL1 KGP pIC50” value is reported as 5.97. In assay [2] (setting [7]), the IC50 came to 1.1 µM. For the same molecule, on PKA-N-HiBiT (without ATP), the “PKA SDR Assay Mean (pSDR50)” value was determined as 4.56.

As for `COc1cc2nccc(Oc3ccc(NC(=O)Nc4ccc(F)cc4F)c(F)c3)c2cc1OC` [KI-8751], in the assay with PKA, the “Annotated PKA activity” value is on record as “no”. Also, the “ABL1 SDR pSDR50” value in assay [1] (setting [5]) was found to be 6.18. The “SDR Ave Max Response” value was found to be 76.14 in assay [1] (setting [6]) and 6.32 at PKA-N-HiBiT (PKA-N-HiBiT qHTS, SDR assay). In addition, in assay [1] (setting [7]), the EC50 is 667 nM. Also, in assay [2] (setting [8]), the “ABL1 KGP pIC50” value is 5.68. Also, the IC50 in assay [2] (setting [7]) came out at 2.11 µM.

Consider Cdk1/2 inhibitor III, for which the “Annotated PKA activity” value in the assay on PKA is on record as “no”. Besides, the “ABL1 SDR pSDR50” value in assay [1] (setting [5]) stood at 6.61. In addition, the “SDR Ave Max Response” value in assay [1] (setting [6]) was 75.26; at PKA-N-HiBiT (PKA-N-HiBiT qHTS, SDR assay), 32.80. In assay [1] (setting [7]), the EC50 was determined as 247 nM. The “ABL1 KGP pIC50” value in assay [2] (setting [8]) is given as 5.33. The IC50 in assay [2] (setting [7]) was found to be 4.8 µM.

Take `Cn1cc(-c2cc3c(N4CCN(c5ncc([C@@](C)(N)c6ccc(F)cc6)cn5)CC4)ncnn3c2)cn1` [Avapritinib]: in the assay with PKA, the “Annotated PKA activity” value is “no”. For the same molecule, the “ABL1 SDR pSDR50” value in assay [1] (setting [5]) is 5.65. Besides, the “SDR Ave Max Response” value in assay [1] (ABL1-N-HiBiT qHTS, SDR assay, average maximal response) was found to be 77.35; on PKA-N-HiBiT (PKA-N-HiBiT qHTS, SDR assay), 9.65. Also, the EC50 in assay [1] (ABL1-N-HiBiT qHTS, SDR assay, average) was 2260 nM. In addition, the “ABL1 KGP pIC50” value in assay [2] (setting [8]) was 4.91. Also, the IC50 in assay [2] (ABL1-N-HiBiT qHTS, Kinase-Glo Plus (KGP) assay, average) was found to be 14 µM.

Regarding `CCOc1ccn(-c2ccc(F)cc2)c(=O)c1C(=O)Nc1ccc(Oc2ccnc(N)c2Cl)c(F)c1` [BMS-777607], in the assay on PKA, the “Annotated PKA activity” value is reported as “yes”. Besides, the “ABL1 SDR pSDR50” value in assay [1] (setting [5]) is listed as 5.27. Further, the “SDR Ave Max Response” value in assay [1] (setting [6]) was 78.74; on PKA-N-HiBiT (PKA-N-HiBiT qHTS, SDR assay), 20.08. Also, the EC50 worked out at 5810 nM in assay [1] (setting [7]) and 76 µM on PKA-N-HiBiT (setting [9]). In addition, the “ABL1 KGP pIC50” value in assay [2] (setting [8]) amounted to 4.97. The IC50 in assay [2] (setting [7]) was found to be 15.7 µM. Besides, the “PKA SDR Ave pSDR50” value on PKA-N-HiBiT (PKA-N-HiBiT qHTS, SDR assay, average) came out at 4.43.

As for `Cc1ccc(C(=O)Nc2ccc(CN3CCN(C)CC3)c(C(F)(F)F)c2)cc1C#Cc1cnc2[nH]ncc2c1` [GZD-824], in the assay on PKA, the “Annotated PKA activity” value was “no”. In assay [1], the “ABL1 SDR pSDR50” value was determined as 8.50, the “SDR Ave Max Response” value amounted to 79.52 and the EC50 stood at 3.21 nM. Further, in assay [2], the “ABL1 KGP pIC50” value is reported as 7.96 and the IC50 is 0.0119 µM. Also, the “SDR Ave Max Response” value on PKA-N-HiBiT (PKA-N-HiBiT qHTS, SDR assay) turned out to be 15.19.

Consider `O=C(Nc1cccc(F)c1)C1CCN(C(=O)c2ncn3c2COC(c2ccccc2)C3)CC1` (centres unmarked) [NCGC00449914], for which the Enz is listed as -94.95 in assay [3] (M -4.48); -88.02 in assay [3] (M -4.96); -77.30 in assay [3] (M -5.44); -54.79 in assay [3] (M -5.91); -35.39 in assay [3] (M -6.39); -17.29 in assay [3] (M -6.87). The Enz in assay [3] (M -7.35) is reported as -8.21; in assay [3] (M -7.82) it was -6.89; in assay [3] (M -8.30), -1.14; in assay [3] (M -8.78), 0.15; in assay [3] (M -9.25), -6.05. The “SDR+ATP” value is reported as 74.59 in assay [4] (M -4.48); 66.41 in assay [4] (M -4.96); 59.05 in assay [4] (M -5.44); 45.60 in assay [4] (M -5.91); 30.44 in assay [4] (M -6.39); 16.83 in assay [4] (M -6.87). Moreover, the “SDR+ATP” value in assay [4] (M -7.35) stood at 11.29; in assay [4] (M -7.82), 8.00; in assay [4] (M -8.30) it was 7.51; in assay [4] (M -8.78) it was 6.04; in assay [4] (M -9.25) it was 5.78. Also, the SDR turned out to be 9.87 in assay [4] (M -4.48); 8.14 in assay [4] (M -4.96); 7.78 in assay [4] (M -5.44); 15.68 in assay [4] (M -5.91); 7.72 in assay [4] (M -6.39); 9.23 in assay [4] (M -6.87). For the same molecule, the SDR in assay [4] (M -7.35) was determined as 8.67; in assay [4] (M -7.82) it was 8.73; in assay [4] (M -8.30) it was 7.88; in assay [4] (M -8.78), 10.30; in assay [4] (M -9.25), 9.59.

The term IC50 denotes the point on the concentration scale where inhibition reaches its midpoint.
